Measurements: patent US20100004333A1, “COMPOSITIONS AND METHODS FOR TREATING CARDIOVASCULAR DISORDERS” (priority 2004, published 2010)
Marks after values point to notes of the source that are not given here.

Tests used:
[1] = system: apoE−/− mice; experiment: Histology of lesions: total cells, macrophages (F4/80), extra-cellular matrix (collagen) in apoE−/− mice; format: in vivo; conditions: for % ECM of total lesion area / % Mφ of total lesion area / ECM area / Lesion area (extra-cellular matrix series) / Lesion area (macrophage series) / Mφ area / Lesion area (total cell density series) / Total cells/μm^2 / Total number of cells: mean ± SD
Text: The materials and methods used were essentially as described under Example 1. In addition, for total cell numbers, nuclei were counted in hematoxylin and eosin-stained sections and expressed per lesion area. At the sinus, sections were taken ˜200 μm from the first appearance of the leaflets. Sections at the thoracic and abdominal aorta were taken at the branch point of the 3rd pair of intra-costal arteries and the celiac artery, respectively. For macrophages, 4 μm paraffin sections were deparaffinized, rehydrated and endogenous peroxidase quenched with 3% hydrogen peroxide (15 min). Enzymatic antigen retrieval was performed in trypsin (1 mg/mL) solutions pH 7.7 containing 4 mM CaCl2 and 200 mM Tris for 30 min at 37° C., followed by a 20 min incubation in 5% normal rabbit blocking serum. Sections were then incubated overnight in a humidified chamber and at 4° C. with monoclonal rat-anti-mouse F4/80 antibody (Caltag Laboratories; dilution 1:20), followed by biotinylated rabbit anti-rat IgG (Vector Laboratories; dilution 1:200, 30 min), Vectorstain Elite ABC reagent (Vectorstain Elite ABC Kit, Vector Laboratories; 30 min), and 3,3′-diaminobenzidine substrate-chromogen (Dako Corporation) with counterstaining using Harris hematoxylin. Images were captured using a Zeiss Axiophot Photomicroscope, and the area staining positive for F4/80 antigen expressed as a percentage of the total lesion area. Collagen was determined as described in Histochemical Journal 1979, 11:447-455. Briefly, 4 μm sections were deparaffinized, rehydrated and stained with 0.1% Sirius red (Fast red F3B) in saturated aqueous picric acid (pH 2.0) for 1 h at room temperature and then transferred to a solution of 0.01 N HCl for 2 min followed by counterstaining in Harris hematoxylin for 1 min. Total lesion area were measured from bright field images captured with an Olympus BX60 photomicroscope attached with a SPOT digital camera, whereas the birefringent area staining positive for Sirius red was detected using polarization microscopy and expressed as a percentage of the total lesion area at that site.

[2] = system: apoE−/− mice; experiment: Aortic biochemistry (non-oxidized lipids, α-tocopherol, oxidized lipids) in aortic segments of apoE−/− mice; format: in vivo; conditions: 1% probucol, 24 weeks, mean ± SD; for Lipids: C: 4 pools; for Oxidized lipids: F2-isoprostanes / Oxidized lipids: F2-isoprostanes per arachidonate: ten sections
Text: Male C57BL/6J mice, homozygous for the disrupted apoE gene (apoE−/−) and originally purchased from Jackson Laboratories (Bar Harbor, Me.), were used at 8-10 weeks of age and then fed for 24 weeks ad libitum a high fat diet containing 21.2 (w/w) fat and 0.15% (w/w) cholesterol (specifications of the Harlan Teklad diet TD88137), without (controls, 103 mice) or with probucol (1% w/w, 87 mice), as described in Arteriosclerosis Thrombosis and Vascular Biology 2000, 20:e26-e33. The local animal ethics committee approved the study.
Procedures were carried out as described in Arteriosclerosis Thrombosis and Vascular Biology 2000, 20:e26-e33. For biochemistry, hearts and aortas past the femoral bifurcation were excised carefully (n=86 and 70 for control and probucol animals, respectively), cleaned, placed immediately in ice-cold buffer containing protease inhibitors and antibiotics, and then stored at −80° C. For histology, separate mice (n=17 each, for controls and probucol) were perfusion fixed, the hearts and aortas dissected and processed for blinded morphometry at the sinus, arch and descending thoracic and abdominal aorta, precisely as described in Arteriosclerosis Thrombosis and Vascular Biology 2000, 20:e26-e33. Mean areas from thoracic and abdominal aortas were similar and therefore combined and presented as a single value. For histology, sections at the sinus were taken ˜200 μm from the first appearance of the leaflets. Sections at the thoracic and abdominal aorta were taken at the branch point of the 3rd pair of intra-costal arteries and the celiac artery, respectively.
For F2-isoprostanes, the thawed aortic segment (≈20 mg wet weight) was blotted dry, weighed and F2-isoprostanes analyzed by electron capture negative ionization GC/MS after solid-phase extraction and HPLC purification as described in Analytical Biochemistry 1999, 268:117-125, using [D4]-8-iso-prostaglandin F2α (Cayman Chemical) as internal standard. For arachidonate, phospholipids were separated by thin-layer chromatography, the fatty acid methyl esters then prepared and analyzed by GLC, as described in American Journal of Clinical Nutrition 2000, 71:1085-1094.
For other analytes, pooled aortic segments were homogenized and extracted as described in Journal of Lipid Research 1999, 40:1104-1112, and the organic phase analysed by HPLC with electrochemical (for α-tocopherol), UV (C and CE) and post-column chemiluminescence detection (CE-OOH) as described in Methods in Enzymology 1999, 299:362-375. CE-OOH were measured as a marker of primary lipoprotein lipid peroxidation as they are the primary and major lipid oxidation products formed in lipoproteins from apoE−/− mice undergoing oxidation in the presence of α-tocopherol. For total cholesterol and 7KC, separate 10 μL and 100 μL aliquots, respectively, of the re-dissolved organic extracts were saponified, and subjected to HPLC as described in Journal of Lipid Research 1997, 38:1730-1745. For 7KC, a silica column (0.46×15 cm, 120 Å, 5 μm, Supelco) with guard column (3 μm particle size) was eluted with hexane/isopropylalcohol/acetonitrile (94.8:4.6:0.6 v/v/v) at 1.0 mL/min and monitored at 234 nm. For all chromatographic analyses, compounds were quantified by area comparison using authentic standards.

[3] = mouse, in vivo
Experimental: The quantity of probucol, BP, and DPQ in aortic homogenates was determined by gradient reverse-phase high-pressure liquid chromatography (HPLC) as described in FASEB Journal 1999, 13:667-675.

[4] = descending aorta, versus control

**Q.** With `CC(C)(Sc1cc(C(C)(C)C)c(O)c(C(C)(C)C)c1)Sc1cc(C(C)(C)C)c(O)c(C(C)(C)C)c1` [probucol] as the molecule, how does the “% ECM of total lesion area” value ([1]; Sinus, n = 6) read?
**A.** 66±13%

**Q.** And the “% Mφ of total lesion area” value ([1]; Sinus, n = 6)?
**A.** 14 ± 5^a %

**Q.** And the ECM area ([1]; Sinus, n = 6)?
**A.** 577 ± 126^a μm^2 × 10^−3

**Q.** What about the “Lesion area (extra-cellular matrix series)” value ([1]; Sinus, n = 6) of the same molecule?
**A.** 878 ± 153^a μm^2 × 10^−3

**Q.** What about the “Lesion area (macrophage series)” value ([1]; Sinus, n = 6) of the same molecule?
**A.** 886 ± 89^a μm^2 × 10^−3

**Q.** What about the Mφ area ([1]; Sinus, n = 6) of the same molecule?
**A.** 127 ± 53 ^ μm^2 × 10^−3

**Q.** And the “% ECM of total lesion area” value ([1]; Sinus, n = 6, listed as Probucol)?
**A.** 66 ± 13^a %

**Q.** And the “Lesion area (total cell density series)” value ([1]; Sinus, n = 8)?
**A.** 889 ± 254^a μm^2 × 10^−3

**Q.** What about the “Total cells/μm^2” value ([1]; Sinus, n = 8) of the same molecule?
**A.** 1.7 ± 0.6^a cells/μm^2

**Q.** What about the “Total number of cells” value ([1]; Sinus, n = 8) of the same molecule?
**A.** 1423 ± 441 ^

**Q.** And the “% ECM of total lesion area” value ([1]; T/A, n = 6)?
**A.** 0.0 ± 0.0^a %

**Q.** What about the “% Mφ of total lesion area” value ([1]; T/A, n = 6) of the same molecule?
**A.** 99.4 ± 1.4 ^ %

**Q.** What about the ECM area ([1]; T/A, n = 6) of the same molecule?
**A.** 0.0 ± 0.0^a μm^2 × 10^−3

**Q.** What about the “Lesion area (extra-cellular matrix series)” value ([1]; T/A, n = 6) of the same molecule?
**A.** 13 ± 3^a μm^2 × 10^−3

**Q.** And the “Lesion area (macrophage series)” value ([1]; T/A, n = 6)?
**A.** 22 ± 15^a μm^2 × 10^−3

**Q.** What about the “Lesion area (total cell density series)” value ([1]; T/A, n = 6) of the same molecule?
**A.** 22 ± 15^a μm^2 × 10^−3

**Q.** What about the Mφ area ([1]; T/A, n = 6) of the same molecule?
**A.** 21 ± 12^a μm^2 × 10^−3

**Q.** What about the “Total cells/μm^2” value ([1]; T/A, n = 6) of the same molecule?
**A.** 0.36 ± 0.39^ cells/μm^2

**Q.** What about the “Total number of cells” value ([1]; T/A, n = 6) of the same molecule?
**A.** 10 ± 13^a

**Q.** What about the Decrease in macrophages [1, 4] of the same molecule?
**A.** ~91%

**Q.** And the “Decrease in total cell numbers” value [1, 4]?
**A.** ~91%

**Q.** And the “Decrease in percentage of lesion area covered by macrophages” value ([1]; sinus, versus control)?
**A.** ~50%

**Q.** What about the “Antioxidants: α-Tocopherol” value ([2]; Arch) of the same molecule?
**A.** 1.6 ± 0.3^a nmol/mgp

**Q.** And the “Lipids: C18:2” value ([2]; Arch)?
**A.** 33 ± 9^a nmol/mgp

**Q.** What about the “Lipids: C20:4” value ([2]; Arch) of the same molecule?
**A.** 17 ± 3^a nmol/mgp

**Q.** What about the “Oxidized lipids: 7KC” value ([2]; Arch) of the same molecule?
**A.** 0.20 ± 0.11 pmol/mgp

**Q.** What about the “Oxidized lipids: 7KC/total cholesterol” value ([2]; Arch) of the same molecule?
**A.** 0.25 ± 0.20 mmol/mol

**Q.** What about the “Oxidized lipids: CE-OOH” value ([2]; Arch) of the same molecule?
**A.** 143.8 ± 118.7 pmol/mgp

**Q.** What about the “Oxidized lipids: CE-OOH/CE” value ([2]; Arch) of the same molecule?
**A.** 2.70 ± 2.04 mmol/mol

**Q.** What about the “Lipids: C” value ([2]; Arch) of the same molecule?
**A.** 447 ± 71^a nmol/mgp

**Q.** And the “Oxidized lipids: F2-isoprostanes” value ([2]; Arch)?
**A.** 0.35 ± 0.11 pmol/mgp

**Q.** And the “Oxidized lipids: F2-isoprostanes per arachidonate” value (“Oxidized lipids … per arachidonate” for short) ([2]; Arch)?
**A.** 10.4 ± 3.6 μmol/mol arachidonate

**Q.** And the “Antioxidants: α-Tocopherol” value ([2]; Sinus)?
**A.** 3.0 ± 1.2 nmol/mgp

**Q.** What about the “Lipids: C18:2” value ([2]; Sinus) of the same molecule?
**A.** 61 ± 11 nmol/mgp

**Q.** What about the “Lipids: C20:4” value ([2]; Sinus) of the same molecule?
**A.** 33 ± 6 nmol/mgp

**Q.** And the “Oxidized lipids: 7KC” value ([2]; Sinus)?
**A.** 0.21 ± 0.11 pmol/mgp

**Q.** What about the “Oxidized lipids: 7KC/total cholesterol” value ([2]; Sinus) of the same molecule?
**A.** 0.16 ± 0.06 mmol/mol

**Q.** What about the “Oxidized lipids: CE-OOH” value ([2]; Sinus) of the same molecule?
**A.** 88.1 ± 26.6 pmol/mgp

**Q.** And the “Oxidized lipids: CE-OOH/CE” value ([2]; Sinus)?
**A.** 0.93 ± 0.12 mmol/mol

**Q.** What about the “Lipids: C” value ([2]; Sinus) of the same molecule?
**A.** 928 ± 144 nmol/mgp

**Q.** And the “Oxidized lipids: F2-isoprostanes” value ([2]; Sinus)?
**A.** 0.39 ± 0.11 pmol/mgp

**Q.** What about the “Oxidized lipids … per arachidonate” value ([2]; Sinus) of the same molecule?
**A.** 8.6 ± 4.8 μmol/mol arachidonate

**Q.** What about the “Antioxidants: α-Tocopherol” value ([2]; Thoracic/Abdominal) of the same molecule?
**A.** 1.2 ± 0.2^a nmol/mgp

**Q.** What about the “Lipids: C18:2” value ([2]; Thoracic/Abdominal) of the same molecule?
**A.** 10 ± 5^a,b nmol/mgp

**Q.** And the “Lipids: C20:4” value ([2]; Thoracic/Abdominal)?
**A.** 5.0 ± 1.4^a,b nmol/mgp

**Q.** What about the “Oxidized lipids: 7KC” value ([2]; Thoracic/Abdominal) of the same molecule?
**A.** 0.10 ± 0.04 pmol/mgp

**Q.** What about the “Oxidized lipids: 7KC/total cholesterol” value ([2]; Thoracic/Abdominal) of the same molecule?
**A.** 0.08 ± 0.02 mmol/mol

**Q.** What about the “Oxidized lipids: CE-OOH” value ([2]; Thoracic/Abdominal) of the same molecule?
**A.** 20.3 ± 8.1 pmol/mgp

**Q.** What about the “Oxidized lipids: CE-OOH/CE” value ([2]; Thoracic/Abdominal) of the same molecule?
**A.** 1.46 ± 0.72 mmol/mol

**Q.** What about the “Lipids: C” value ([2]; Thoracic/Abdominal) of the same molecule?
**A.** 215 ± 55^a nmol/mgp

**Q.** And the “Oxidized lipids: F2-isoprostanes” value ([2]; Thoracic/Abdominal)?
**A.** 0.14 ± 0.04^a,b pmol/mgp

**Q.** What about the “Oxidized lipids … per arachidonate” value ([2]; Thoracic/Abdominal) of the same molecule?
**A.** 3.8 ± 1.4^a,b μmol/mol arachidonate

**Q.** And the “Metabolites (BP and DPQ) relative to parent drug” value [3]?
**A.** nearly one third of the drug
